From the C3SDB collision cross section collection

Settings: instrument: TW, calibrated with polyalanine and drug standards

Compound	collision cross section (N2) ([M+H]+) [Å²]	collision cross section (N2) ([M+Na]+) [Å²]
CN1C(=O)CC[C@H]1c1cccnc1 [COTININE]	141.1	–
CC(=O)Oc1c(C)cccc1C(=O)O [CRESOPIRINE]	129.1	–
Cc1c2oc3c(C)ccc(C(=O)N[C@@H]4C(=O)N[C@H](C(C)C)C(=O)N5CCC[C@H]5C(=O)N(C)CC(=O)N(C)[C@@H](C(C)C)C(=O)O[C@@H]4C)c3nc-2c(C(=O)N[C@@H]2C(=O)N[C@H](C(C)C)C(=O)N3CCC[C@H]3C(=O)N(C)CC(=O)N(C)[C@@H](C(C)C)C(=O)O[C@@H]2C)c(N)c1=O [DACTINOMYCIN]	341.2	–
O=C1c2cccc(O)c2C(=O)c2c(O)cccc21 [DANTHRON]	148.3	–
Nc1ccc(S(=O)(=O)c2ccc(N)cc2)cc1 [DAPSONE]	151.7	–
CC(C)CCCC1(C)C=Cc2c(O)c3c(c(CCC(C)C)c2O1)OC12C(CC4CC1C(C)(C)OC2(CCC(C)C(=O)O)C4O)C3=O (centres undefined) [DECAHYDROGAMBOGIC ACID]	251	–
CCCCCCCCCCOc1cc2c(=O)c(C(=O)OCC)c[nH]c2cc1OCC [DECOQUINATE]	216.2	–
COc1cc2c(cc1OC)[C@@H]1C(=O)c3ccc4c(c3O[C@@H]1CO2)C=CC(C)(C)O4 [DEGUELIN(-)]	194.2	–
C[C@H](CCC(=O)O)[C@H]1CC[C@H]2[C@@H]3C(=O)C[C@@H]4CC(=O)CC[C@]4(C)[C@H]3CC(=O)[C@]12C [DEHYDROCHOLIC ACID]	–	192.1
C=C(C)C1Cc2c(ccc3c(=O)c4c(oc23)COc2cc(OC)c(OC)cc2-4)O1 (centres undefined) [DEHYDROROTENONE]	192.3	–
COc1ccc(-c2cc(=O)c3c(O)c(OC)c(OC)c(OC)c3o2)cc1OC [DEMETHYLNOBILETIN]	186.6	–
CC(=O)O[C@@H]1C[C@H]2C(C)(C)C(=O)C=C[C@]2(C)[C@H]2CC[C@]3(C)C(=CC(=O)O[C@H]3c3ccoc3)[C@@]21C [DEOXYGEDUNIN]	206.3	–
CC(=O)O[C@H]1C[C@@H](OC(C)=O)C(C)(C)C2C[C@@H](OC(C)=O)[C@@]3(C)C4=CC(=O)O[C@@H](c5ccoc5)[C@]4(C)CCC3[C@]21C (some centres undefined) [DEOXYKHIVORIN]	224.9	–
COc1cc(OC)c2c(=O)c(-c3ccc4c(c3)OCO4)coc2c1 [DERRUSTONE]	169.8	–
COC(=O)[C@@H]1OC(=O)C2OC23[C@@]1(C)CCC1[C@]2(C)C(C[C@@H](O)[C@]13C)C(C)(C)[C@H](OC(C)=O)C[C@@H]2OC(C)=O (some centres undefined) [DESACETYL (7)KHIVORINIC ACID, METHYL ESTER]	216.9	–
C[C@@H]1C[C@H]2[C@@H]3CCC4=CC(=O)C=C[C@]4(C)[C@@]3(F)[C@@H](O)C[C@]2(C)[C@@]1(O)C(=O)CO [DEXAMETHASONE]	187.9	–
CC1=NS(=O)(=O)c2cc(Cl)ccc2N1 [DIAZOXIDE]	143.7	–
CCCCOC(=O)c1ccccc1C(=O)OCCCC [DIBUTYL PHTHALATE]	–	180.7

Compound	collision cross section (N2) ([M+H]+) [Å²]	collision cross section (N2) ([M+Na]+) [Å²]
C/C=C(/C(=C/C)c1ccc(O)cc1)c1ccc(O)cc1 [DIENESTROL]	–	153.2
CCCCCC1C(=O)CCC1CC(=O)O (centres undefined) [DIHYDROJASMONIC ACID]	147	–
Cc1c(C(N)=O)cc([N+](=O)[O-])cc1[N+](=O)[O-] [DINITOLMIDE]	143.7	–
COc1ccc(-c2cc(=O)c3c(O)cc(O)cc3o2)cc1O [DIOSMETIN]	164.8	–
COc1ccc(-c2cc(=O)c3c(O)cc(O[C@@H]4O[C@H](CO[C@@H]5O[C@@H](C)[C@H](O)[C@@H](O)[C@H]5O)[C@@H](O)[C@H](O)[C@H]4O)cc3o2)cc1O [DIOSMIN]	242.5	–
CC(=O)Oc1ccccc1C(=O)Oc1ccccc1C(=O)O [DIPLOSALSALATE]	159.4	–
COc1ccc(-c2coc3c(O)c(O)c(OC)cc3c2=O)cc1 [DIPTERYXIN]	168.5	–
COc1cccc2c1C(=O)c1c(O)c3c(c(O)c1C2=O)C[C@@](O)(C(=O)CO)C[C@@H]3O[C@H]1C[C@H](N)[C@H](O)[C@H](C)O1 [DOXORUBICIN]	227	–
OCC(O)CN1CCN(c2ccccc2)CC1 (centres undefined) [DROPROPIZINE]	155.7	–
Cn1c(=O)c2c(ncn2CC(O)CO)n(C)c1=O (centres undefined) [DYPHYLLINE]	152.6	–
CC[C@H]1CN2CCc3cc(OC)c(OC)cc3[C@@H]2C[C@@H]1C[C@H]1NCCc2cc(OC)c(OC)cc21 [EMETINE]	219.6	–
CC1(C)[C@@H](O)CC[C@]2(C)[C@H]3C(=O)C=C4[C@@H]5C[C@@](C)(C(=O)O)CC[C@]5(C)CC[C@@]4(C)[C@]3(C)CC[C@@H]12 [ENOXOLONE]	213.9	–
C[C@]12CC[C@H]3[C@@H](CCC4=CC(=O)CC[C@@]43C)[C@@H]1CC[C@H]2O [EPITESTOSTERONE]	170.7	–
CN1CC[C@@]2(C)c3cc(O)ccc3N(C)[C@@H]12 [ESEROLINE]	149.1	–
C=C(C)c1cc2cc(C(C)=O)c(O)cc2o1 [EUPARIN]	143.2	–
C=C1C[C@@H]2[C@H](CC[C@]3(C)C(=O)CC[C@@H]23)[C@@]2(C)C=CC(=O)C=C12 [EXEMESTANE]	171.1	–
Nc1ccncc1 [FAMPRIDINE]	117.8	–
NCC1(CC(=O)O)CCCCC1 [GABAPENTIN]	138.6	–

Continued, values first:

collision cross section (N2) ([M+H]+) [Å²]	collision cross section (N2) ([M+Na]+) [Å²]	Compound
207.3	–	CC(=O)Oc1cc(OC(C)=O)c2c(c1)O[C@H](c1ccc(OC(C)=O)c(OC(C)=O)c1)[C@H](OC(C)=O)C2 [EPICATECHIN PENTAACETATE]
161.5	–	Oc1cc(O)c2c(c1)O[C@H](c1ccc(O)c(O)c1)[C@H](O)C2 [EPICATECHIN]
153.6	–	C[C@]12CC[C@@H]3c4ccc(O)cc4CC[C@H]3[C@@H]1C[C@H](O)[C@@H]2O [EPIESTRIOL]
258.1	–	CC[C@H]1OC(=O)[C@H](C)[C@@H](O[C@H]2C[C@@](C)(OC)[C@@H](O)[C@H](C)O2)[C@H](C)[C@@H](O[C@@H]2O[C@H](C)C[C@H](N(C)C)[C@H]2O)[C@](C)(O)C[C@@H](C)C(=O)[C@H](C)[C@@H](O)[C@]1(C)O [ERYTHROMYCIN]
171	–	CCCCC(=O)O[C@H]1CC[C@H]2[C@@H]3CCc4cc(O)ccc4[C@H]3CC[C@]12C [ESTRADIOL VALERATE]
152.7	–	CCOc1ccc2nc(S(N)(=O)=O)sc2c1 [ETHOXZOLAMIDE]
181.4	–	COc1c2ccoc2nc2c(OC)c(OCC(O)C(C)(C)O)ccc12 (centres undefined) [EVOXINE]
154.6	–	CCCCCCOc1ccccc1C(N)=O [EXALAMIDE]
167.2	–	NC(N)=Nc1nc(CSCC/C(N)=N/S(N)(=O)=O)cs1 [FAMOTIDINE]
190.5	–	CC(C)OC(=O)C(C)(C)Oc1ccc(C(=O)c2ccc(Cl)cc2)cc1 [FENOFIBRATE]
200.5	–	CC1=C(/C=C/C(C)=C/C=C/C(C)=C/C(=O)Nc2ccc(O)cc2)C(C)(C)CCC1 [FENRETINIDE]
134.3	–	CCC(=O)c1c(O)cc(O)cc1O [FLOPROPIONE]
–	170.7	CS(=O)(=O)c1ccc([C@@H](O)[C@@H](CF)NC(=O)C(Cl)Cl)cc1 [FLORFENICOL]
149.8	–	CC1CCc2cc(F)cc3c(=O)c(C(=O)O)cn1c23 (centres undefined) [FLUMEQUINE]
189.2	–	C[C@@H]1C[C@H]2[C@@H]3C[C@H](F)C4=CC(=O)C=C[C@]4(C)[C@@]3(F)[C@@H](O)C[C@]2(C)[C@@]1(O)C(=O)CO [FLUMETHASONE]
199.7	–	CC1(C)O[C@@H]2C[C@H]3[C@@H]4C[C@H](F)C5=CC(=O)C=C[C@]5(C)[C@@]4(F)[C@@H](O)C[C@]3(C)[C@]2(C(=O)CO)O1 [FLUOCINOLONE ACETONIDE]
229.9	–	CC(=O)OCC(=O)[C@@]12OC(C)(C)O[C@@H]1C[C@H]1[C@@H]3C[C@H](F)C4=CC(=O)C=C[C@]4(C)[C@@]3(F)[C@@H](O)C[C@@]12C [FLUOCINONIDE]
172.3	–	O=C1OC2(c3ccc(O)cc3Oc3cc(O)ccc32)c2ccccc21 [FLUORESCEIN]
174.5	–	CNCCC(Oc1ccc(C(F)(F)F)cc1)c1ccccc1 (centres undefined) [FLUOXETINE]
201.2	–	CC1(C)O[C@@H]2C[C@H]3[C@@H]4C[C@H](F)C5=CC(=O)CC[C@]5(C)[C@H]4[C@@H](O)C[C@]3(C)[C@]2(C(=O)CO)O1 [FLURANDRENOLIDE]
200.6	–	CC(C)n1c(/C=C/[C@@H](O)C[C@@H](O)CC(=O)O)c(-c2ccc(F)cc2)c2ccccc21 [FLUVASTATIN]
196.8	–	Nc1nc(=O)c2nc(CNc3ccc(C(=O)N[C@@H](CCC(=O)O)C(=O)O)cc3)cnc2[nH]1 [FOLIC ACID]
–	235.6	CC(=O)O[C@H]1C[C@@]2(C)[C@@H](C[C@@H](O)[C@H]3[C@@]4(C)CC[C@@H](O)[C@@H](C)[C@@H]4CC[C@@]32C)/C1=C(\CCC=C(C)C)C(=O)O [FUSIDIC ACID]
